Legend:
[1] = test system: RPMI-8226 human myeloma xenografts; assay: RPMI-8226 human myeloma subcutaneous xenograft model in scid mice; type: in vivo; conditions: vs untreated controls, FIG. 16
Procedure: Anti-tumor efficacy of test peptides was evaluated against RPMI-8226 human myeloma xenografts implanted subcutaneously (sc) in severe compromised immunodeficient (scid) mice.
Studies generally consisted of randomly-assigned groups of 8 or 10 mice per group, which were implanted sc with myeloma fragments (30-40 mg). In addition to groups tested with test peptides, studies usually included a vehicle-treated control group and a positive control group treated with an agent known to be active in the RPMI-8226 model. In one type of schedule, mice were treated IP with either vehicle or test peptides starting one day after tumor implantation (implantation day defined as Day 0). Test peptides and vehicle were generally administered IP daily for 3-4 weeks.
Dosing solutions of the test peptides were prepared weekly and kept at −20° C. between injections. […] Each tumor was measured by caliper in two dimensions and converted to tumor mass using the formula for a prolate ellipsoid (a X b^2/2), where a is the longer dimension and b is the smaller dimension, and assuming unit density (1 mm^3=1 mg). Tumor measurements were recorded twice weekly. Body weights were also recorded twice weekly. Anti-tumor activity was assessed by the delay in tumor growth of the treated groups in comparison to the vehicle-treated control group, partial and complete regressions, and tumor-free survivors. […]

B16 melanoma tumor = assay: Subcutaneous B16 melanoma tumor model in vivo; set-up: species or system mouse; conditions: 20 mg/kg daily IP, vs untreated controls, FIG. 12
Procedure: Because of the importance of the angiogenic process for tumorigenesis, miniproteins as described herein, were hypothesized to show good anti-tumor activity. The peptides of the invention were tested in an in vivo model of anti-tumor activity. This model compares the growth of sub cutaneous B16 melanoma tumor in vivo either untreated or treated with various amount of miniproteins described in this application. This model is widely accepted in the art as a model to test the anti-tumor activity of compounds that inhibit tumor growth because they have anti-angiogenic activity.
Male C57BL/6 mice were obtained with a mean body weight of 20±2 g. Mouse B16-F1 melanoma cells were implanted subcutaneously (5×10^5 cell per animal). Peptides (formulated in water) were administered ip daily at the amount indicated starting the day after cells injection. In general, tumors became palpable around 9 days after injection of cells. Tumor were then measured every 2 days.

[2] = Biological activity of D-amino acid versions of ST100,038 (assay not specified); conditions: ST100,045 tested against ST100,059 and a control
Procedure: D-amino acid peptides can be made by generating a D-amino acid peptide with the same sequence as a L-amino acid peptide or by preparing a retro inverso form of a peptide. ST100,045 (SEQ ID NO.: 31) has the same sequence as ST100,038 (SEQ ID NO.: 29) was tested against ST100,059 (SEQ ID NO.: 30) which is the retro inverso version of ST100,038 and a control.

[3] = test system: Bovine Retinal Endothelial Cells (BRE); assay: VEGF-mediated survival/proliferation of BRE cells (WST1); type: cell-based; conditions: increasing doses, FIG. 5
Procedure: (§1) The anti-angiogenic activities of the peptides were tested by measuring the level of inhibition of VEGF and bFGF mediated survival/proliferation of Bovine Retinal Endothelial Cells (BRE), Human Dermal Microvasculature Endothelial Cells, and Human Umbilical Vein Endothelial Cells, all of which are standard cell lines used to test anti-angiogenic compounds.
Bovine retinal endothelial (BRE) cells were maintained in Cambrex EG2 media. For non-adherent cell assays, on day one cells were starved for either 6 hours or overnight, then trypsinized and plated in 96-well plates in 100 μl of Optimem plus 1% fetal bovine serum (FBS). One hundred μl of Optimem plus 1% FBS was added to the wells containing, where appropriate, VEGF to a final concentration of 25 ng/ml, and the various peptides to final concentrations as described. For adherent cells, cells were plated in 96-well plates in complete media, allowed to adhere overnight, washed in starvation media (Optimem plus 1% FBS) and then starved during the day. At the end of the day, 100 μl of Optimem plus 1% FBS was added to the wells containing, where appropriate, VEGF to a final concentration of 25 ng/ml and the various peptides to final concentrations as described.
(§2) In all cases, after 72 hours incubation, the amount of live cells in each well was measured with the WST1 assay (Roche).

[4] = Heparin binding activity by liquid chromatography on Hi Trap Heparin HP column (NaCl elution); conditions: step gradient 500-1000 mM NaCl in 10 mM NaH2PO4 pH 7
Excerpt: Liquid chromatography was used to determine the relative levels of heparin binding activity of the individual heparin binding domains and of the anti-angiogenic miniproteins that contains them. In this assay, the strength of the heparin binding activity is proportional to the amount of NaCl that is required to elute the peptide bound to the heparin column. Peptides with low binding activity are eluted with lower NaCl concentration, whereas higher concentrations of NaCl are required for peptides with higher binding activity.
Hi Trap Heparin HP column (1 ml, Amersham Biosciences) was equilibrated with 10 column volumes (CV) of equilibration (EQ) buffer=10 mM NaH2PO4pH 7. All buffers were loaded onto columns via syringes. 500 μl fractions are collected (flow rate=1 ml/minute). 500 μg of peptide (1 mg/ml, resuspended in EQ buffer) was added to each column and the flow through was collected for analysis. The columns were then washed with 3 CV of EQ buffer. Peptides are then eluted with a step gradient of 500, 625, 750, 875 mM NaCl in EQ buffer, 2 CV per each step. A final step of 3 CV of 1000 mM NaCl in EQ buffer was collected in 500 μl fractions. The A210 nm was measured using EQ and elution buffers as blanks.

[5] = test system: human dermal microvasculature endothelial cells; assay: VEGF mediated survival/proliferation in human dermal microvasculature endothelial cells; type: cell-based; conditions: 30, 100, and 200 μg/ml, FIG. 8
Procedure: as §1, §2
(§3) In a further experiment, the anti-angiogenic activity of peptide ST100,061 (SEQ ID NO.: 3), a derivative of ST100,032 (SEQ ID NO.: 1), at concentrations of 30, 100, and 200 μg/ml was tested by measuring the level of inhibition of VEGF and bFGF mediated survival/proliferation in human dermal microvasculature endothelial cells.

[6] = test system: human dermal microvasculature endothelial cells; assay: bFGF mediated survival/proliferation in human dermal microvasculature endothelial cells; type: cell-based; conditions: 30, 100, and 200 μg/ml, FIG. 8
Procedure: as §1, §2, §3

L1210 murine leukemia = L1210 murine leukemia intravenous model in vivo; set-up: species or system mouse; conditions: dosed IP, DBA/2 mice, FIG. 15a
Procedure: Antitumor activity of test peptides, administered intraperitoneally (IP), were evaluated against L1210 murine leukemia cells implanted intravenously (IV) in DBA/2 mice.
Studies generally consisted of randomly-assigned groups of 8 mice per group, which were inoculated IV with 1×10^5 cells per mouse from an in vivo leukemia cell line. In addition to groups tested with test peptides, studies usually included a vehicle-treated control group and a positive control group treated with an agent known to be active in the L1210 leukemia model. Starting one day after tumor inoculation (inoculation day defined as Day 0), mice were treated IP with either vehicle or test peptides in various schedules. Generally this consisted of treatment every other day for approximately 1 week (e.g., Days 1, 3, 5 and 7). A positive agent (e.g., cyclophosphamide) was usually given as a single IP injection on Day 1. All dosing solutions were prepared on each day of treatment. Survival was monitored daily and body weights were measured twice weekly. Anti-tumor activity was assessed by the increase in lifespan of the treated groups in comparison to the vehicle-treated control group. Studies with the L1210 leukemia model were limited to 30 days.

[7] = test system: mouse leukemia L1210 cells; assay: Tumor cell proliferation (WST-1), L1210; type: cell-based; conditions: FIG. 11
Procedure: Peptides to be tested were prepared at a stock concentration of 10 mM in sterile phosphate buffered saline. Cancer cell lines obtained from the American Type Culture Collection (MG-63, HT1080, A498, BxPC3, 786-0, PC-3, B16F1, B16F10, P388D1, Jurkat, MOLT4, THP-1, U-937, L1210, RPMI 8226, NCI H929, U266B1, K562) were cultured under appropriate conditions as described in the literature. Cell culture media and reagents were obtained from ATCC (Manassas, Va.), Invitrogen (Carlsbad, Calif.) or Mediatech (Herndon, Va.). Exponentially growing cultures were used for cell proliferation assays. Adherent cells were plated at a concentration of 100000 cells per milliter in growth media overnight (18-24 h) and treated the next day in a low serum media (growth media with 1% FBS for MG-63, HT1080, A498, BxPC3, PC-3, B16F1, B16F10. 786-0 cells were treated in media with 5% FBS). Suspension cell lines (P388D1, Jurkat, MOLT4, THP-1, U-937, L1210, RPMI 8226, NCI H929, U266B1, and K562) were diluted to a concentration of 100,000 cells per ml and treated on the same day with peptides. Peptides were diluted in treatment media and cells were treated for 48 or 72 hours depending on the cell line. Each dose was tested in triplicate for each experiment, and experiments were repeated for a minimum of three discrete times. After incubation, the relative number of cells was determined using WST-1 (Roche Applied Science). A 9.5 μl aliquot of WST-1 was added to each well. The plate was immediately read at 440 nm using a Bio-Tek PowerWave XS microplate reader, incubated for 2-3 hours at 37° C. and then read again. Cell proliferation was determined as the percent of the control cell proliferation. The absorbance of each well at time 0 was subtracted from the value of the final reading. Afterwards the blank values were averaged and subtracted from each test and control value. Finally, each test absorbance was divided by the average of the control absorbances and multiplied by 100 to obtain the percent of control. […]

[8] = test system: Human Umbilical Vein Endothelial Cells; assay: bFGF-mediated survival/proliferation of human umbilical vein endothelial cells (WST1); type: cell-based
Procedure: as §1
Human umbilical cord endothelial (HUVEC) cells were maintained in Cambrex EGM-2MV media. On day one, cells were starved overnight in 1% FBS in M200 media (Cascade Biologicals). The morning after, the media were replaced with serum-free media (control) or media containing 25 ng/ml of human VEGF165 and the various peptides to final concentrations as described.
as §2

| Sequence | inhibition of tumor growth ([1]; 100 mg/kg daily IP) | inhibition of tumor growth (B16 melanoma tumor) | biologically active [2] | inhibition of VEGF stimulation [3] | [NaCl] for elution [4] [mM] | inhibition of VEGF mediated survival/proliferation [5] | inhibition of bFGF mediated survival/proliferation [6] | inhibition of tumor growth ([1]; 25 mg/kg daily IP) | mice (cured mice) survived longer than 30 days (L1210 murine leukemia) | survival (L1210 murine leukemia) | blocked cell proliferation or induced cell death [7] | inhibition of bFGF mediated survival ([8]; compared with ST100,061, FIG. 9) | inhibition of bFGF mediated survival ([8]; comparison of several peptides, FIG. 10) |
| --- | --- | --- | --- | --- | --- | --- | --- | --- | --- | --- | --- | --- | --- |
| PSQSSHPPLSTA (listed as Homo sapiens) [ST100,059] | does not inhibit tumor growth | clearly inhibit tumor growth | biologically active | inhibited with increasing doses | 0 |  |  |  |  |  |  |  |  |
| PYDGRGDSVVYGLRKKKAARGRRAARGRR (listed as Homo sapiens) [ST100,061, a derivative of ST100,032] |  | may be less active |  |  |  | effective in inhibiting both VEGF and bFGF | effective in inhibiting both VEGF and bFGF |  |  |  |  |  |  |
| RRGRAARRGRAAKKKRLGYVVSDGRGDYP [ST100,064] |  |  |  |  |  |  |  | able to inhibit tumor growth | Sixty to eighty percent | statistically significant increases in survival | able to block cell proliferation and induce cell death | as effectively as ST100,061 | the most active in inhibiting bFGF stimulation |

— patent US20080207502A1, “Anti-Angiogenic Peptides and Methods of Use Thereof” (SOPHERION THERAPEUTICS, INC., priority 2004, published 2008)
